For one assay, the target named is T1, CDK4D1 (Homo sapiens, UniProt P11802).
T1 construct: purchased Eurofins Pharma Discovery or Reaction Biology Corporation (service)
Description: Kinase assay CDK4/D1 (radiometric or ADP Glo). The assay is classed as biochemical. The note with it: apparent Ki calculated from Km (ATP) and IC50; read-out: CDK inhibition Ki CDK4D1. The method, then: (§1) Eurofins Pharma Discovery or Reaction Biology Corporation Kinase Profiler services were used to measure inhibition of CDKs and other kinases by radiometric assay. Inhibition of CDK4/D1, CDK6/D3 and CDK9/T1 were also determined in-house using ADP Glo Kinase assays (Promega Corporation, Madison, USA). Briefly, the kinase reaction for CDK4/D1 and CDK6/D3 was performed with kinase reaction buffer ([…] Tris base pH 7.5, 20 mM MgCl2, 0.4 mM DTT), 0.1 mg/ml BSA and RB-CTF substrate (retinoblastoma protein1 C-terminal fraction). For CDK9/CyclinT1, the kinase reaction was performed with standard assay buffer and Kinase Dilution Buffer and RBER-IRStide substrate. Serial dilutions of 1:3 were prepared for test compounds for 10 concentrations (from 10 μM to 0.5 nM). The kinase reactions were started by addition of ATP, incubated for 40 min at 37° C. and then stopped by adding 10 μL of ADP Glo reagent. After incubation at room temperature in the dark for 40 min, 20 μL of kinase detection reagent was added per well and incubated for 40 min. Luminescence was measured using an EnVision Multilabel plate reader (PerkinElmer, Buckinghamshire, UK). Positive and negative controls were perfonned in the presence and absence of CDK kinases, respectively. Half-maximal inhibition (IC50) values were calculated using a 4-parameter logistic non-linear regression model with Graphpad prism (Version 6.0). Apparent inhibition constants (Ki) values were calculated from Km (ATP) and IC50 values for the respective kinases.

A further assay has as its target T2, CDK9T1 (Homo sapiens, UniProt P50750).
T2 construct: purchased Eurofins Pharma Discovery or Reaction Biology Corporation (service)
Description: Kinase assay CDK9/T1 (radiometric or ADP Glo). The assay is classed as biochemical. The note with it: apparent Ki calculated from Km (ATP) and IC50; read-out: CDK inhibition Ki CDK9T1. The method, then:
as §1

The next assay addresses CDK1B (Homo sapiens, UniProt P06493). Kind of assay: Kinase assay CDK1B (radiometric profiling service). The format is biochemical. The settings on record: apparent Ki calculated from Km (ATP) and IC50; read-out: CDK inhibition Ki CDK1B. The method, then: as §1
A further assay has as its target CDK 2A (Homo sapiens, UniProt P24941). Description: Kinase assay CDK2A (radiometric profiling service). The assay is classed as biochemical. The settings on record: apparent Ki calculated from Km (ATP) and IC50; read-out: CDK inhibition Ki CDK 2A. The method, then:
as §1

The test system of a further assay is MV4-11. Kind of assay: Cell viability assay (resazurin, leukemia cell line) MV4-11. The assay is classed as cell-based, human. The settings on record: Homo sapiens, MV4-11, 72 h; read-out: Anti-proliferative activity GI50 MV4-11. An excerpt: (§2) Compounds from Example 1 were subjected to a standard MTT (3-(4,5-dimethylthiazol-2-yl)-2,5-diphenyltetrazolium bromide) and resazurin assays on solid tumour cell lines and leukemia cell lines, respectively, as previously reported (Wang S et al., J Med Chem 47:1662-1675, 2004 and Diab S. et al. CheMedChem 9:962-972, 2014).
In general terms: Resazurin is reduced to fluorescent resorufin, in cell work by metabolically active cells.

The next assay concerns MDA-MB-453. Description: Cell viability assay (MTT, solid tumour cell line) MDA-MB-453. The settings on record: Homo sapiens, MDA-MB-453, 72 h; read-out: Anti-proliferative activity GI50 MDA-MB-453. The format is cell-based, human.
From the text: as §2

The next assay addresses T3, CDK6D3 (Homo sapiens, UniProt Q00534).
T3 construct: purchased Eurofins Pharma Discovery or Reaction Biology Corporation (service)
Description: Kinase assay CDK6/D3 (radiometric or ADP Glo). The assay is classed as biochemical. The note with it: apparent Ki calculated from Km (ATP) and IC50; read-out: CDK inhibition Ki CDK6D3. The method, then: as §1

These results are taken from patent USRE49850E1, “N-(pyridin-2-yl)-4-(thiazol-5-yl)pyrimidin-2-amine derivatives as therapeutic compounds” (AUCENTRA THERAPEUTICS PTY LTD, priority 2015, dated 2024).

Molecules are shown by their SMILES.

A word on the GI50: it is the concentration at which growth is held to half of that of the control.

T1 sequence (P11802 whole entry): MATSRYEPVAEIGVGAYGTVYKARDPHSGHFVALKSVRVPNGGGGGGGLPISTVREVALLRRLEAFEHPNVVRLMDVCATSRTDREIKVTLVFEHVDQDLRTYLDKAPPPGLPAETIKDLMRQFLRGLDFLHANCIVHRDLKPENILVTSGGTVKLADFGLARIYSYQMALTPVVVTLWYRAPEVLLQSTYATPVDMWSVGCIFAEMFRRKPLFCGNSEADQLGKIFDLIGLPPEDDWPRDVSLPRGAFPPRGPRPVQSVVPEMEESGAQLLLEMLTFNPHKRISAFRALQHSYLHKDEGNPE
T1 sequence (P24385 whole entry partner): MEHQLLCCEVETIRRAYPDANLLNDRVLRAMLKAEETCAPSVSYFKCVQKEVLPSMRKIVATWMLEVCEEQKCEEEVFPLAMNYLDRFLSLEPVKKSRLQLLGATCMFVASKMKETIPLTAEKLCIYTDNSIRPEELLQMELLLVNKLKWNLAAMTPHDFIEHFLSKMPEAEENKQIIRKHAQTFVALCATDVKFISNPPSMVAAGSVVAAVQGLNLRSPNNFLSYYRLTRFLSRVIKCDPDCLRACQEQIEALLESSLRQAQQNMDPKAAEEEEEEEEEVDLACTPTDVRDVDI
T2 sequence (P50750 whole entry): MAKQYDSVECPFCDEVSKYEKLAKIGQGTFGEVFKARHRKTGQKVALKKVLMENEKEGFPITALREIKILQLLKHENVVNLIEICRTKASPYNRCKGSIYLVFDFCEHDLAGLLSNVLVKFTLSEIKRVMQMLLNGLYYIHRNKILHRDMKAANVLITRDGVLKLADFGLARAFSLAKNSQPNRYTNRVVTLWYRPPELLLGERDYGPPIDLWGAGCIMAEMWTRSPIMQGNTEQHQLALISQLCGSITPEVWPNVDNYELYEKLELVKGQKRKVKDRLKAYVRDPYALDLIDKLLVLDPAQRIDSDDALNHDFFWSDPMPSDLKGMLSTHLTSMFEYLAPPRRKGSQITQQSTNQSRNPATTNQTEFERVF
T2 sequence (O60563 whole entry partner): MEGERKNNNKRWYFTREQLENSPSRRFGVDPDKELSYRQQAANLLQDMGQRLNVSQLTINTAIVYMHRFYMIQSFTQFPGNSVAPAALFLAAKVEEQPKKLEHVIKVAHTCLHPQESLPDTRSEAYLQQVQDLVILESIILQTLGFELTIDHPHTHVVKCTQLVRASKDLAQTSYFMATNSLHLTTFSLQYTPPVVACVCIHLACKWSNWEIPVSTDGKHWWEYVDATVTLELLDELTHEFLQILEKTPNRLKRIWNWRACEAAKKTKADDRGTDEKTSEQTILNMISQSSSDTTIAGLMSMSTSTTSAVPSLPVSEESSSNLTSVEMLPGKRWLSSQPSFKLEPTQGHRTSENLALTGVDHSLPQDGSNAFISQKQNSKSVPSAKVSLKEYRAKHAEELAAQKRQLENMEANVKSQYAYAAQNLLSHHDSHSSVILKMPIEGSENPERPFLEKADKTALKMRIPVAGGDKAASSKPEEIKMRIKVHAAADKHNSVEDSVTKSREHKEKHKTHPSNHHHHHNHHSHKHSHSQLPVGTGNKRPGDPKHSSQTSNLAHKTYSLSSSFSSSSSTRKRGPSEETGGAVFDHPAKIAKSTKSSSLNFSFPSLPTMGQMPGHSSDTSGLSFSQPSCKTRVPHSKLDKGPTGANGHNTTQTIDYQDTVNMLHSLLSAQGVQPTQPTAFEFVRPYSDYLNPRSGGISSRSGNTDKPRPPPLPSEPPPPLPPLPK
CDK1B, sequence (P06493 whole entry): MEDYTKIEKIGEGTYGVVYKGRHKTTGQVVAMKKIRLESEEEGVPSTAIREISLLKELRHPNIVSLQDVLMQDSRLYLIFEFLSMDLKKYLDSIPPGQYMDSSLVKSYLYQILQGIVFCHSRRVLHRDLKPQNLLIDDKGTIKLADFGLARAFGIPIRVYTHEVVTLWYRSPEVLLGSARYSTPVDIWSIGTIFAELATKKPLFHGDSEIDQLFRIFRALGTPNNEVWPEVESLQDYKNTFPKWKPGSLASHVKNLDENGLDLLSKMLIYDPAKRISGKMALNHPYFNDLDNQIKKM
CDK1B, sequence (P14635 whole entry partner): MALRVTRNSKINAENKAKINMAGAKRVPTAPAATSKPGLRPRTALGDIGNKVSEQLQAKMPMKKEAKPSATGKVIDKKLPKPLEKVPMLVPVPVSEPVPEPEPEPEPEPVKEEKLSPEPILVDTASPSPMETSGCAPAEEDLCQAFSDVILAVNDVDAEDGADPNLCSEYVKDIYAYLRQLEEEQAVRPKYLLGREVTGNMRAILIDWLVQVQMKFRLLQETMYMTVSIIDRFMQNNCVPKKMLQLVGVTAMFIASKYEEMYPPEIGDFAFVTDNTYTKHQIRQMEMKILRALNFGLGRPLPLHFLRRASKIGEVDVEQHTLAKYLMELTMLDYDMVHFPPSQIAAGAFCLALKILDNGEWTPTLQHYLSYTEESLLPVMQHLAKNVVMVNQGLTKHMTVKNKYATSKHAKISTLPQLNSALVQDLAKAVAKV
T3 sequence (Q00534 whole entry): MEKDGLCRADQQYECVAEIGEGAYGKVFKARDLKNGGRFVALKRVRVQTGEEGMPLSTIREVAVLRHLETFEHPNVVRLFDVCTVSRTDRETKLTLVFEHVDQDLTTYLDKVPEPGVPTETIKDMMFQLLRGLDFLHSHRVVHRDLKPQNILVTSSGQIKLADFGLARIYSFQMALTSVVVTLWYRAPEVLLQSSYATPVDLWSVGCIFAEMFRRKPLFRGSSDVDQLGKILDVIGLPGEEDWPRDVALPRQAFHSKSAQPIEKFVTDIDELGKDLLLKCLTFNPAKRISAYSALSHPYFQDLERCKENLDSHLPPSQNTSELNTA
T3 sequence (P30281 whole entry partner): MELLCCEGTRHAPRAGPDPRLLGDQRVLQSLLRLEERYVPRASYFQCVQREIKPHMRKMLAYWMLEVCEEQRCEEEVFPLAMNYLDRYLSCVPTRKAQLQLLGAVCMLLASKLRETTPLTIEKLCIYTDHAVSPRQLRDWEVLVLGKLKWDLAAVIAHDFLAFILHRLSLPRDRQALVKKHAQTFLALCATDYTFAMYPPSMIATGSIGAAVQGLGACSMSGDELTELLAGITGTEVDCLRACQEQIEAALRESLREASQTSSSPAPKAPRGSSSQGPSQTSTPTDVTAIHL

Turning to `Cc1nc(Nc2ccccc2)sc1-c1ccnc(Nc2ccc(N3CCNCC3)cn2)n1` [Compound 89, 4-Methyl-N-phenyl-5-(2-((5-(piperazin-1-yl)pyridin-2-yl)amino)pyrimidin-4-yl)thiazol-2-amine], the Ki at CDK4D1 is 0.005 µM; at CDK9T1 it was 0.436 µM; on CDK1B it was 2.04 µM; on CDK 2A it was more than 5 µM; on CDK6D3 it was 0.066 µM. For the same compound, the GI50 stood at 0.056 ± 0.011 µM in the assay on MV4-11 and 0.279 ± 0.044 µM with MDA-MB-453.
`CCN1CCN(c2ccc(Nc3ncc(F)c(-c4sc(NC5CCCC5)nc4C)n3)nc2)CC1` [Compound 67, N-cyclopentyl-5-(2-((5-(4-ethylpiperazin-1-yl)pyridin-2-yl)amino)-5-fluoropyrimidin-4-yl)-4-methylthiazol-2-amine]: the Ki at CDK4D1 was 0.002 µM; at CDK9T1 it was more than 5 µM; at CDK1B, more than 5 µM; on CDK 2A it was 0.349 µM; on CDK6D3 it was 0.006 µM. In addition, the GI50 in the assay with MV4-11 was found to be 0.013 ± 0.002 µM; with MDA-MB-453, 0.066 ± 0.019 µM.
With `FC(F)(F)c1nc(NC2CCCC2)sc1-c1ccnc(Nc2ccc(N3CCNCC3)cn2)n1` [Compound 62, N-cyclopentyl-5-(2-((5-(piperazin-1-yl)pyridin-2-yl)amino)pyrimidin-4-yl)-4-(trifluoromethyl)thiazol-2-amine], the Ki on CDK4D1 is 0.008 µM; at CDK9T1, 0.258 µM; on CDK1B, 0.22 µM; on CDK 2A it was 0.022 µM; on CDK6D3, 0.002 µM. The values for the GI50 with MV4-11 and in the assay with MDA-MB-453 were 0.002 ± 0.001 µM and 0.081 ± 0.039 µM, respectively.
Consider `CNc1nc(C)c(-c2nc(Nc3ccccn3)ncc2F)s1` [Compound 54, 5-(5-fluoro-2-(pyridin-2-ylamino)pyrimidin-4-yl)-N,4-dimethylthiazol-2-amine], for which the Ki on CDK4D1 was more than 5 µM. In addition, the GI50 was 2.16 ± 0.431 µM in the assay on MV4-11 and 2.94 ± 0.507 µM in the assay on MDA-MB-453.
Consider `Cc1nc(NC(C)C)sc1-c1ccnc(Nc2ccc(N3CCCNCC3)cn2)n1` [Compound 59, 5-(2-((5-(1,4-diazepan-1-yl)pyridin-2-yl)amino)pyrimidin-4-yl)-N-isopropyl-4-methylthiazol-2-amine], for which the Ki was 0.016 µM on CDK4D1; 0.925 µM at CDK9T1; more than 5 µM on CDK1B; 0.8 µM on CDK 2A; 0.028 µM on CDK6D3. Moreover, the GI50 with MV4-11 is 0.255 ± 0.085 µM; in the assay with MDA-MB-453, 0.938 ± 0.068 µM.
For the compound `Cc1nc(NC2CCCC2)sc1-c1nc(Nc2ccc(N3CCCNCC3)cn2)ncc1F` [Compound 81, 5-(2-((5-(1,4-diazepan-1-yl)pyridin-2-yl)amino)-5-fluoropyrimidin-4-yl)-N-cyclopentyl-4-methylthiazol-2-amine], the Ki was 0.014 µM at CDK4D1; 0.679 µM at CDK9T1; more than 5 µM at CDK1B; 0.417 µM on CDK 2A; 0.01 µM at CDK6D3. In addition, the GI50 amounted to 0.029 ± 0.002 µM with MV4-11 and 0.083 ± 0.009 µM in the assay on MDA-MB-453.
As to `Cc1nc(NC(C)C)sc1-c1ccnc(Nc2ccc(N3CCNCC3)cn2)n1` [Compound 55, N-isopropyl-4-methyl-5-(2-((5-(piperazin-1-yl)pyridin-2-yl)amino)pyrimidin-4-yl)thiazol-2-amine], the Ki at CDK4D1 is 0.005 µM; at CDK9T1 it was 2.42 µM; on CDK1B, 3.14 µM; at CDK 2A it was 0.24 µM; at CDK6D3 it was 0.011 µM. The results for the GI50 in the assay on MV4-11 and with MDA-MB-453 were 0.093 ± 0.01 µM and 0.031 ± 0.002 µM, respectively.
Consider `Cc1nc(NC2CCCC2)sc1-c1ccnc(Nc2ccc(N3CCCNCC3)cn2)n1` [Compound 76, 5-(2-((5-(1,4-diazepan-1-yl)pyridin-2-yl)amino)pyrimidin-4-yl)-N-cyclopentyl-4-methylthiazol-2-amine], for which the Ki on CDK4D1 was 0.001 µM; on CDK9T1, 0.508 µM; on CDK1B it was 4.07 µM; on CDK 2A, 0.278 µM; at CDK6D3 it was 0.008 µM. Further, the GI50 is 0.029 ± 0.002 µM in the assay with MV4-11 and 0.102 ± 0.117 µM in the assay with MDA-MB-453.
Regarding `CC(=O)N1CCN(c2ccc(Nc3nccc(-c4sc(NC5CCCC5)nc4C)n3)nc2)CC1` [Compound 68, 1-(4-(6-((4-(2-(Cyclopentylamino)-4-methylthiazol-5-yl)pyrimidin-2-yl)amino)pyridin-3-yl)piperazin-1-yl) ethan-1-one], the Ki is 0.006 µM at CDK4D1; 0.286 µM at CDK9T1; 3.25 µM on CDK1B; 0.776 µM on CDK 2A; 0.093 µM at CDK6D3. For the same compound, the GI50 in the assay with MV4-11 turned out to be 0.024 ± 0.028 µM; in the assay with MDA-MB-453, 0.591 ± 0.256 µM.
Regarding `CN1CCN(c2ccc(Nc3nccc(-c4sc(NC5CCCC5)nc4C(F)(F)F)n3)nc2)CC1` [Compound 65, N-cyclopentyl-5-(2-((5-(4-methylpiperazin-1-yl)pyridin-2-yl)amino)pyrimidin-4-yl)-4-(trifluoromethyl)thiazol-2-amine], the Ki is 0.001 µM on CDK4D1; 0.831 µM at CDK9T1; 0.241 µM at CDK1B; 0.022 µM at CDK 2A; 0.003 µM on CDK6D3. Also, the GI50 came out at 0.001 ± 0.001 µM in the assay with MV4-11 and 0.42 ± 0.12 µM with MDA-MB-453.
In the case of `CC(=O)N1CCN(c2ccc(Nc3nccc(-c4sc(NC(C)C)nc4C)n3)nc2)CC1` [Compound 57, 1-(4-(6-((4-(2-(isopropylamino)-4-methylthiazol-5-yl)pyrimidin-2-yl)amino)pyridin-3-yl)piperazin-1-yl)ethan-1-one], the Ki is 0.021 µM on CDK4D1; 3.72 µM at CDK9T1; 2.69 µM on CDK1B; 0.2 µM at CDK 2A; 0.105 µM on CDK6D3. Moreover, the GI50 stood at 2.07 ± 0.321 µM in the assay on MV4-11 and 0.344 ± 0.126 µM with MDA-MB-453.
Consider `Cc1nc(NC2CCCC2)sc1-c1ccnc(Nc2ccc(N3CCN(C)CC3)cn2)n1` [Compound 63, N-cyclopentyl-4-methyl-5-(2-((5-(4-methylpiperazin-1-yl)pyridin-2-yl)amino)pyrimidin-4-yl)thiazol-2-amine], for which the Ki at CDK4D1 was 0.002 µM; on CDK9T1, 0.18 µM; on CDK1B it was 2.68 µM; on CDK 2A it was 0.206 µM; at CDK6D3, 0.009 µM. The results for the GI50 in the assay with MV4-11 and in the assay on MDA-MB-453 were 0.009 µM and 0.13 ± 0.011 µM, respectively.
As to `CNc1nc(C)c(-c2nc(Nc3ccc(N4CCCCC4)cn3)ncc2F)s1` [Compound 51, 5-(5-fluoro-2-((5-(piperidin-1-yl)pyridin-2-yl)amino)pyrimidin-4-yl)-N,4-dimethylthiazol-2-amine], the Ki on CDK4D1 is more than 5 µM. For the same compound, the values for the GI50 in the assay on MV4-11 and with MDA-MB-453 were 0.606 ± 0.038 µM and 0.463 ± 0.075 µM, respectively.
`Cc1nc(NC2CCCC2)sc1-c1nc(Nc2ccc(N3CCNCC3)cn2)ncc1F` [Compound 61, N-cyclopentyl-5-(5-fluoro-2-((5-(piperazin-1-yl)pyridin-2-yl)amino)pyrimidin-4-yl)-4-methylthiazol-2-amine]: the Ki at CDK4D1 is 0.003 µM; at CDK9T1 it was 0.787 µM; at CDK1B, 2.24 µM; on CDK 2A it was 0.256 µM; at CDK6D3 it was 0.007 µM. Further, the GI50 with MV4-11 was 0.053 ± 0.004 µM; with MDA-MB-453, 0.78 ± 0.598 µM.
Take `Cc1nc(NC2CCCC2)sc1-c1ccnc(Nc2ccc(N3CCN(S(C)(=O)=O)CC3)cn2)n1` [Compound 77]: the GI50 worked out at 0.176 ± 0.009 µM in the assay on MV4-11 and 0.215 ± 0.052 µM with MDA-MB-453.
For `CCN1CCN(Cc2ccc(Nc3nccc(-c4sc(NC5CCCC5)nc4C)n3)nc2)CC1` [Compound 83, N-cyclopentyl-5-(2-((5-((4-ethylpiperazin-1-yl)methyl)pyridin-2-yl)amino)pyrimidin-4-yl)-4-methylthiazol-2-amine], the Ki was 1.98 µM on CDK9T1 and more than 5 µM at CDK1B. Further, the GI50 with MV4-11 turned out to be 0.019 ± 0.003 µM; in the assay with MDA-MB-453, 0.004 ± 0.002 µM.
As to `Cc1nc(NC2CCCC2)sc1-c1ccnc(Nc2ccccn2)n1` [Compound 78, N-cyclopentyl-4-methyl-5-(2-(pyridin-2-ylamino)pyrimidin-4-yl)thiazol-2-amine], the Ki at CDK4D1 was 0.57 µM; at CDK9T1 it was more than 5 µM. Also, the GI50 is 0.3 ± 0.035 µM in the assay with MV4-11 and 4.38 ± 0.691 µM in the assay with MDA-MB-453.
